Series [1] concerns SMN2 minigene mRNA (SMN2-A minigene) in HEK293H cells. Nature of the series: SMN2 minigene mRNA splicing RT-qPCR assay in cultured cells. The format is cell-based, human. The conditions noted are these: Homo sapiens, HEK293-H; concentration increasing full length SMN2 mRNA 1.5-fold relative to vehicle-treated cells; HEK293H cells with SMN2-A minigene, 24 hours, 7-point concentration data; read-out: EC1.5x for production of full length SMN2 mRNA. The procedure, abridged: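 Potency reflects the concentration that lifts full-length SMN2 minigene mRNA 1.5-fold above vehicle in stably transfected HEK293H cells after 24 h of treatment. Transcript abundance came from RT-qPCR as (1+E)^−Ct, normalized to GAPDH; endogenous SMN1/SMN2 are not detected.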
On the technique in general: Quantitative PCR measures a nucleic acid by following its amplification.

Series [2] relates to Smn protein in SMA patient fibroblast cells (GM03813). Nature of the series: Smn protein assay in cultured cells (SMN HTRF). The conditions noted are these: SMA patient fibroblast cells, 48 hours; for maximum fold (Fold) increase of Smn protein: 7-point concentration data, fold relative to vehicle control; for EC1.5x for Smn protein expression: 7-point concentration curve, SMN HTRF, concentration producing 1.5 times Smn protein vs DMSO vehicle control. The format is cell-based, human. In a few lines: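 Smn protein abundance in treated SMA fibroblasts was measured by HTRF after 48 h compound exposure. The reported EC1.5× is the concentration producing 1.5 times vehicle Smn levels.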

A value given as a limit tells only on which side of the number the result lay.

Broadly, the melting point is the temperature of the solid-liquid transition.

With `O=c1cc(-c2ccc3nc(C(F)(F)F)cn3c2)nc2ccc(N3CCNCC3)cn12` [Compound 123, 7-(piperazin-1-yl)-2-[2-(trifluoromethyl)imidazo[1,2-a]pyridin-6-yl]-4H-pyrido[1,2-a]pyrimidin-4-one], the melting point lay in the range of 250 to 255 °C. In addition, in series [1], the EC (1.5-fold increase) fell in the range of 1 to 3 µM. Also, the “maximum fold (Fold) increase of Smn protein” value (“maximum fold (Fold) increase” below) in series [2] is “* (A maximum fold increase of ≤1.2 is indicated by one star (*))”.

`CCc1cn2cc(-c3cc(=O)n4cc(N5CCNCC5)ccc4n3)ccc2n1` [Compound 124, 2-(2-ethylimidazo[1,2-a]pyridin-6-yl)-7-(piperazin-1-yl)-4H-pyrido[1,2-a]pyrimidin-4-one] registered a melting point of 228 to 232 °C. Besides, the EC (1.5-fold increase) in series [1] lay in the range of 0.3 to 1 µM. The “maximum fold (Fold) increase” value in series [2] is “** (a fold increase between >1.2 and ≤1.35 is indicated by two stars (**))”.

Take `Cc1nc2ccc(-c3cc(=O)n4cc(N5CCNCC5)ccc4n3)cn2c1C` [Compound 125, 2-(2,3-dimethylimidazo[1,2-a]pyridin-6-yl)-7-(piperazin-1-yl)-4H-pyrido[1,2-a]pyrimidin-4-one]: the melting point lay in the range of 236 to 240 °C. For the same compound, in series [1], the EC (1.5-fold increase) is 0.3 to 1 µM. In series [2], the “maximum fold (Fold) increase” value was “*** (a fold increase between >1.35 and ≤1.5 is indicated by three stars (***))”.

Consider `COc1ccc(-c2cc(=O)n3cc(N4C[C@H]5CNC[C@H]5C4)ccc3n2)cc1OC` [Compound 126, 2-(3,4-dimethoxyphenyl)-7-[(3aR,6aS)-hexahydropyrrolo[3,4-c]pyrrol-2(1H)-yl]-4H-pyrido[1,2-a]pyrimidin-4-one], for which the melting point was in the range of 286 to 290 °C. For the same compound, the EC (1.5-fold increase) in series [1] is 0.1 to 0.3 µM. Also, in series [2], the “maximum fold (Fold) increase” value is “** (a fold increase between >1.2 and ≤1.35 is indicated by two stars (**))”.

As for `COc1ccc(-c2cc(=O)n3cc(N4CCC(N)CC4)ccc3n2)cc1OC` [Compound 127, 7-(4-aminopiperidin-1-yl)-2-(3,4-dimethoxyphenyl)-4H-pyrido[1,2-a]pyrimidin-4-one], the melting point lay in the range of 182 to 185 °C. The EC (1.5-fold increase) in series [1] is 0.3 to 1 µM. In series [2], the “EC1.5x for Smn protein expression” value is “* (An EC1.5× for Smn protein expression between >3 μM and ≤10 μM is indicated by one star (*))”; the “maximum fold (Fold) increase” value was “*** (a fold increase between >1.35 and ≤1.5 is indicated by three stars (***))”.

As for `Cn1ccc2cc(-c3cc(=O)n4cc(N5CCNCC5)ccc4n3)cnc21` [Compound 129, 2-(1-methyl-1H-pyrrolo[2,3-b]pyridin-5-yl)-7-(piperazin-1-yl)-4H-pyrido[1,2-a]pyrimidin-4-one], the melting point was 230 to 233 °C. Further, in series [1], the EC (1.5-fold increase) lay within 0.3 to 1 µM. Also, in series [2], the “EC1.5x for Smn protein expression” value was “* (An EC1.5× for Smn protein expression between >3 μM and ≤10 μM is indicated by one star (*))”; the “maximum fold (Fold) increase” value is “*** (a fold increase between >1.35 and ≤1.5 is indicated by three stars (***))”.

`C[C@@H]1CN(c2ccc3nc(-c4cnc5c(ccn5C)c4)cc(=O)n3c2)C[C@H](C)N1` [Compound 130, 7-[(3R,5S)-3,5-dimethylpiperazin-1-yl]-2-(1-methyl-1H-pyrrolo[2,3-b]pyridin-5-yl)-4H-pyrido[1,2-a]pyrimidin-4-one]: the melting point was in the range of 265 to 268 °C. For the same compound, the EC (1.5-fold increase) in series [1] lay in the range of 1 to 3 µM. Besides, in series [2], the “EC1.5x for Smn protein expression” value is “* (An EC1.5× for Smn protein expression between >3 μM and ≤10 μM is indicated by one star (*))”; the “maximum fold (Fold) increase” value is “*** (a fold increase between >1.35 and ≤1.5 is indicated by three stars (***))”.

Regarding `Cc1nc2ccc(-c3cc(=O)n4cc(N5CCNCC5)ccc4n3)cc2o1` [Compound 133, 2-(2-methyl-1,3-benzoxazol-6-yl)-7-(piperazin-1-yl)-4H-pyrido[1,2-a]pyrimidin-4-one], the melting point was 219 to 222 °C. Also, the EC (1.5-fold increase) in series [1] is < 0.1 µM. Further, in series [2], the “EC1.5x for Smn protein expression” value was “**** (an EC1.5x≤0.3 μM is indicated by four stars (****))”; the “maximum fold (Fold) increase” value was “**** (a fold increase between >1.5 and ≤1.65 is indicated by four stars (****))”.

As to `Cc1nc2ccc(-c3cc(=O)n4cc(N5CCN[C@@H](C)C5)ccc4n3)cc2o1` [Compound 134, 2-(2-methyl-1,3-benzoxazol-6-yl)-7-[(3S)-3-methylpiperazin-1-yl]-4H-pyrido[1,2-a]pyrimidin-4-one], the melting point was in the range of 191 to 193 °C. The EC (1.5-fold increase) in series [1] is < 0.1 µM. In addition, in series [2], the “EC1.5x for Smn protein expression” value is reported as “**** (an EC1.5x≤0.3 μM is indicated by four stars (****))” and the “maximum fold (Fold) increase” value is “***** (a fold increase >1.65 is indicated by five stars (*****))”.

In the case of `Cc1nc2cc(-c3cc(=O)n4cc(N5CCN[C@@H](C)C5)ccc4n3)ccc2s1` [Compound 135, 2-(2-methyl-1,3-benzothiazol-5-yl)-7-[(3S)-3-methylpiperazin-1-yl]-4H-pyrido[1,2-a]pyrimidin-4-one], the melting point lay within 174 to 180 °C. For the same compound, the EC (1.5-fold increase) in series [1] was < 0.1 µM. For the same compound, in series [2], the “EC1.5x for Smn protein expression” value is recorded as “**** (an EC1.5x≤0.3 μM is indicated by four stars (****))”; the “maximum fold (Fold) increase” value is “**** (a fold increase between >1.5 and ≤1.65 is indicated by four stars (****))”.

In turn, `Cc1nc2cc(-c3cc(=O)n4cc(N5CCNCC5)ccc4n3)ccc2s1` [Compound 136, 2-(2-methyl-1,3-benzothiazol-5-yl)-7-(piperazin-1-yl)-4H-pyrido[1,2-a]pyrimidin-4-one] yielded a melting point of 228 to 230 °C. In addition, the EC (1.5-fold increase) in series [1] is < 0.1 µM. In addition, in series [2], the “EC1.5x for Smn protein expression” value is “**** (an EC1.5x≤0.3 μM is indicated by four stars (****))” and the “maximum fold (Fold) increase” value was “***** (a fold increase >1.65 is indicated by five stars (*****))”.

Consider `Cn1cc2cc(-c3cc(=O)n4cc(N5CCNCC5)ccc4n3)ccc2n1` [Compound 137, 2-(2-methyl-2H-indazol-5-yl)-7-(piperazin-1-yl)-4H-pyrido[1,2-a]pyrimidin-4-one], for which the melting point fell in the range of 175 to 180 °C. Besides, the EC (1.5-fold increase) in series [1] lay in the range of 0.1 to 0.3 µM. Moreover, in series [2], the “EC1.5x for Smn protein expression” value was “*** (an EC1.5× between >0.3 μM and ≤1 μM is indicated by three stars (***))”; the “maximum fold (Fold) increase” value is “***** (a fold increase >1.65 is indicated by five stars (*****))”.

Compound `C[C@H]1CN(c2ccc3nc(-c4ccc5nn(C)cc5c4)cc(=O)n3c2)CCN1` [Compound 138, 2-(2-methyl-2H-indazol-5-yl)-7-[(3S)-3-methylpiperazin-1-yl]-4H-pyrido[1,2-a]pyrimidin-4-one] came in with a melting point of 166 to 170 °C. For the same compound, in series [1], the EC (1.5-fold increase) lay within 0.1 to 0.3 µM. Besides, in series [2], the “EC1.5x for Smn protein expression” value was “*** (an EC1.5× between >0.3 μM and ≤1 μM is indicated by three stars (***))”; the “maximum fold (Fold) increase” value is listed as “***** (a fold increase >1.65 is indicated by five stars (*****))”.

Take `COc1cc(F)cc(-c2cc(=O)n3cc(N4CCNCC4)ccc3n2)c1` [Compound 139, 2-(3-fluoro-5-methoxyphenyl)-7-(piperazin-1-yl)-4H-pyrido[1,2-a]pyrimidin-4-one]: the melting point was 168 to 170 °C. Further, the EC (1.5-fold increase) in series [1] lay in the range of 1 to 3 µM. Besides, the “maximum fold (Fold) increase” value in series [2] was “*** (a fold increase between >1.35 and ≤1.5 is indicated by three stars (***))”.
